This is an account of results in patent USRE47689E1, “Compounds for treating spinal muscular atrophy” (PTC Therapeutics, Inc., priority 2011, dated 2019).

Where a name gives a salt, the structure may show the parent alone. Read-outs that look alike come from different tables or passages of the source.

The test system of data set [1] is SMN2 minigene (full length SMN2 minigene mRNA containing SMN2 exon 7). Description: SMN2 minigene mRNA splicing RT-qPCR assay in cultured cells. It counts as cell-based, human. Particulars: for EC (1.5-fold): Homo sapiens, HEK293-H, read-out: EC1.5x for production of full length SMN2 mRNA. In a few lines: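 Lysates → one-step RT-qPCR, minigene-specific primers (0.4 μM final) + GAPDH multiplex, 40 cycles. FL/GAPDH vs DMSO; EC1.5x, star-binned.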
(In general: In qPCR the cycle at which signal appears reflects the starting amount.)

The next data set has as its system Smn protein. Description: Smn protein assay in cultured cells (SMN HTRF). It counts as cell-based, human. The settings on record: for EC1.5x (concentration giving 1.5-fold Smn protein increase): read-out: EC1.5x for Smn protein expression. In short, it runs like this: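 Smn in SMA fibroblast lysates, measured by anti-SMN HTRF after 48 h compound exposure; EC1.5x from fold change over vehicle.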
A general note: In TR-FRET formats the signal depends on donor and acceptor labels being close together.

Setting [2] is: HEK293H cells stably transfected with SMN2-A minigene, 24 hours, 7-point concentration curve, 1.5-fold relative to vehicle-treated cells.
Where [3] appears, read: SMA patient fibroblast cells, 48 hours, 7-point concentration data, fold increase relative to vehicle control (SMN HTRF).
The mark [4] stands for this setting: SMA Type 1 patient fibroblast cells (GM03813), 48 hours, 7-point concentration curve, SMN HTRF, concentration producing 1.5 times Smn protein vs DMSO vehicle control.

A word on the melting point: it is the temperature of the solid-liquid transition. In the case of `O=c1oc2cc(N3CCNCC3)ccc2cc1Nc1cccnc1` [Compound 66, 7-(piperazin-1-yl)-3-(pyridin-3-ylamino)-2H-chromen-2-one], the melting point was in the range of 172 to 175 °C. Also, in data set [1] (24 h), the EC (1.5-fold) is 3 to 30 µM.
With `O=c1oc2cc(N3CCNCC3)ccc2cc1-c1nc2ccccc2s1` (as salt: hydrochloride) [Cpd 4, 3-(1,3-benzothiazol-2-yl)-7-(piperazin-1-yl)-2H-chromen-2-one hydrochloride], the melting point is 250 °C (dec.).
The compound `Cc1cccn2cc(-c3cc4ccc(N5CCN(CCO)CC5)cc4oc3=O)nc12` [Compound 102, 7-[4-(2-hydroxyethyl)piperazin-1-yl]-3-(8-methylimidazo[1,2-a]pyridin-2-yl)-2H-chromen-2-one] showed a melting point of 210 to 212 °C. Further, the EC (1.5-fold) in data set [1] (setting [2]) was in the range of 1 to 3 µM.
In turn, `O=c1oc2cc(OC3CCNC3)ccc2cc1-c1cn2cccnc2n1` (stereo in doubt) (as salt: hydrochloride) [Cpd 321, 3-(imidazo[1,2-a]pyrimidin-2-yl)-7-[(3R)-pyrrolidin-3-yloxy]-2H-chromen-2-one hydrochloride (1:2)] came in with a melting point of 240 to 250 °C.
On to `O=c1oc2cc(N3CCNCC3)ccc2cc1Nc1ncccn1` [Compound 33, 7-(piperazin-1-yl)-3-(pyrimidin-2-ylamino)-2H-chromen-2-one], for which the melting point was in the range of 193 to 195 °C. Further, the EC (1.5-fold) in data set [1] (24 h) was 3 to 30 µM.
Turning to `COc1cccc(-c2cc3ccc(N4CCNCC4)cc3oc2=O)c1` [Compound 77, 3-(3-methoxyphenyl)-7-(piperazin-1-yl)-2H-chromen-2-one], the melting point was 127 to 130 °C. The EC (1.5-fold) in data set [1] (setting [2]) was 3 to 30 µM.
As for `Cc1cn2cc(-c3cc4ccc(N5CCN[C@H](C)C5)cc4oc3=O)cc2cn1` [Compound 637, 7-[(3R)-3-methylpiperazin-1-yl]-3-(3-methylpyrrolo[1,2-a]pyrazin-7-yl)-2H-chromen-2-one], the melting point was 220 to 223 °C. Besides, the EC (1.5-fold) in data set [1] (setting [2]) is less than 0.1 µM.
For `O=c1oc2cc(N3CCNCC3)ccc2cc1-c1ccc(Cl)cn1` [Compound 113, 3-(5-chloropyridin-2-yl)-7-(piperazin-1-yl)-2H-chromen-2-one], the melting point fell in the range of 180 to 182 °C. For the same compound, in data set [1] (24 h), the EC (1.5-fold) was in the range of 3 to 30 µM.
`CN(C)C1CCN(c2ccc3cc(-c4nc5ccccc5o4)c(=O)oc3c2)C1` (centres unmarked) [Compound 48, 3-(1,3-benzoxazol-2-yl)-7-[3-(dimethylamino)pyrrolidin-1-yl]-2H-chromen-2-one] yielded a melting point of 222 to 224 °C. Further, in data set [1] (setting [2]), the EC (1.5-fold) lay in the range of 1 to 3 µM.
As to `Cc1ccn2cc(-c3cc4ccc(O[C@@H]5CCNC5)cc4oc3=O)nc2c1` (as salt: hydrochloride) [Compound 323, 3-(7-methylimidazo[1,2-a]pyridin-2-yl)-7-[(3R)-pyirolidin-3-yloxy]-2H-chromen-2-one hydrochloride (1:2)], the melting point lay in the range of 271 to 275 °C.
`CN1CCN(c2ccc3cc(-c4cccc(C(F)(F)F)c4)c(=O)oc3c2)CC1` [Compound 11, 7-(4-methylpiperazin-1-yl)-3-[3-(trifluoromethyl)phenyl]-2H-chromen-2-one] registered a melting point of 150 to 156 °C. Further, the EC (1.5-fold) in data set [1] (setting [2]) lay in the range of 3 to 30 µM.
`O=c1oc2cc(N3CCNCC3)ccc2cc1-c1nc2c(Cl)cccc2s1` (as salt: hydrochloride) [Cpd 5, 3-(4-chloro-1,3-benzothiazol-2-yl)-7-(piperazin-1-yl)-2H-chromen-2-one hydrochloride]: the melting point was 290 °C (dec.).
Regarding `O=C(Nc1ccccc1)c1cc2ccc(N3CCNCC3)cc2oc1=O` (as salt: trifluoroacetate) [Cpd 3, 2-oxo-N-phenyl-7-(piperazin-1-yl)-2H-chromene-3-carboxamide trifluoroacetate], the melting point lay in the range of 238 to 248 °C.
`O=c1oc2cc(N3CCNCC3)ccc2cc1Nc1ccccn1` [Cpd 32, 7-(piperazin-1-yl)-3-(pyridin-2-ylamino)-2H-chromen-2-one] returned a melting point of 191 to 194 °C. Also, the EC (1.5-fold) in data set [1] (24 h) was 3 to 30 µM.
In turn, `O=c1oc2cc(OC3CCNCC3)ccc2cc1-c1nc2ccccc2s1` [Compound 46, 3-(1,3-benzothiazol-2-yl)-7-(piperidin-4-yloxy)-2H-chromen-2-one] yielded a melting point of 220 to 226 °C. In addition, the EC (1.5-fold) in data set [1] (setting [2]) fell in the range of 0.3 to 1 µM.
In the case of `Cl.O=c1oc2cc(N3CCNCC3)ccc2cc1-c1nc2cccc(C(F)(F)F)c2o1`, the melting point is 297 to 307 °C.
Regarding `Cl.O=c1oc2cc(N3CCNCC3)ccc2cc1-c1nc2c(C(F)(F)F)cccc2o1`, the melting point lay in the range of 339 to 341 °C.
Same read-out and setting: the same measure for `Cc1cn2cc(-c3cc4ccc(C5=CCNCC5)cc4oc3=O)nc2c(C)n1`: 205 to 211 °C.
For the compound `O=c1oc2cc(N3C[C@@H]4C[C@H]3CN4)ccc2cc1-c1cn2cccnc2n1` (as salt: hydrochloride) [Compound 129, 7-[(1S,4S)-2,5-diazabicyclo[2.2.1]hept-2-yl]-3-(imidazo[1,2a]pyrimidin-2-yl)-2H-chromen-2-one hydrochloride (1:3)], the melting point is more than 300 °C.
`Cc1cn2cc(-c3cc4ccc(C5=CCN(C)CC5)cc4oc3=O)nc2c(C)n1` [Compound 800, 3-(6,8-dimethylimidazo[1,2-a]pyrazin-2-yl)-7-(1-methyl-1,2,3,6-tetrahydropyridin-4-yl)-2H-chromen-2-one]: the EC (1.5-fold) in data set [1] (24 h) was less than 0.1 µM. For the same compound, in the data set with Smn protein, the “maximum fold (Fold) increase of Smn protein” value (“maximum fold (Fold) increase” below) is “***** (key: *: maximum fold increase of ≤1.2; **: fold increase between >1.2 and ≤1.35; ***: fold increase between >1.35 and ≤1.5; ****: fold increase between >1.5 and ≤1.65; *****: fold increase >1.65)”; the EC1.5x (concentration giving 1.5-fold Smn protein increase) was less than 300 nM.
Take `Cc1cn2cc(-c3cc4ccc(N5CC(CN)C5)cc4oc3=O)nc2c(C)n1` [Compound 963, 7-[3-(aminomethyl)azetidin-1-yl]-3-(6,8-dimethylimidazo[1,2-a]pyrazin-2-yl)-2H-chromen-2-one]: in data set [1] (setting [2]), the EC (1.5-fold) was in the range of 0.3 to 1 µM. For the same compound, the “maximum fold (Fold) increase” value in the data set on Smn protein (setting [3]) is “*** (fold increase between >1.35 and ≤1.5)”.
On to `Cc1cc2oc(-c3cc4ccc(N5CCN(C)CC5)cc4oc3=O)cc2c(C)n1` [Compound 832, 3-(4,6-dimethylfuro[3,2-c]pyridin-2-yl)-7-(4-methylpiperazin-1-yl)-2H-chromen-2-one], for which the EC (1.5-fold) in data set [1] (setting [2]) was in the range of 1 to 3 µM. Also, the “maximum fold (Fold) increase” value with Smn protein (setting [3]) is listed as “* (maximum fold increase of ≤1.2)”.
`O=c1oc2cc(N3CCNCC3)ccc2cc1-c1cn2cc(F)ccc2n1` [Compound 103, 3-(6-fluoroimidazo[1,2-a]pyridin-2-yl)-7-(piperazin-1-yl)-2H-chromen-2-one]: the EC (1.5-fold) in data set [1] (setting [2]) lay in the range of 0.3 to 1 µM. Also, the “maximum fold (Fold) increase” value in the data set with Smn protein (setting [3]) was “** (fold increase between >1.2 and ≤1.35)”.
On to `Cc1cn2cc(-c3cc4ccc(N5CCC(N)CC5)cc4oc3=O)cc2c(C)n1` [Compound 714, 7-(4-aminopiperidin-1-yl)-3-(1,3-dimethylpyrrolo[1,2-a]pyrazin-7-yl)-2H-chromen-2-one], for which, in data set [1] (setting [2]), the EC (1.5-fold) fell in the range of 0.1 to 0.3 µM. Moreover, in the data set on Smn protein (setting [3]), the “maximum fold (Fold) increase” value is on record as “* (maximum fold increase of ≤1.2)”.
For the compound `CCN1CCC(c2ccc3cc(-c4cc5c(C)nc(C)cn5n4)c(=O)oc3c2)CC1` [Cpd 853, 3-(4,6-dimethylpyrazolo[1,5-a]pyrazin-2-yl)-7-(1-ethylpiperidin-4-yl)-2H-chromen-2-one], in data set [1] (setting [2]), the EC (1.5-fold) was in the range of 1 to 3 µM. For the same compound, the “maximum fold (Fold) increase” value in the data set on Smn protein (setting [3]) is given as “* (maximum fold increase of ≤1.2)”.
With `Cc1cn2cc(-c3cc4ccc(N5CCNCC5)cc4oc3=O)ccc2n1` [Compound 677, 3-(2-methylimidazo[1,2-a]pyridin-6-yl)-7-(piperazin-1-yl)-2H-chromen-2-one], in data set [1] (setting [2]), the EC (1.5-fold) is less than 0.1 µM. In addition, the EC1.5x (concentration giving 1.5-fold Smn protein increase) with Smn protein (setting [4]) is less than 300 nM. Further, in the data set on Smn protein (setting [3]), the “maximum fold (Fold) increase” value is “**** (fold increase between >1.5 and ≤1.65)”.
On to “7-(1,4-diazepan-1-yl)-3-(6-methylimidazo[1,2-a]pyrazin-2-yl)-2H-chromen-2-one [Compound 477]”, for which the “EC1.5x for production of full length SMN2 mRNA” value in data set [1] (setting [2]) is “***** (EC1.5x≤0.1 μM)”. Besides, in the data set with Smn protein (setting [4]), the EC1.5x (concentration giving 1.5-fold Smn protein increase) was less than 300 nM. In addition, the “maximum fold (Fold) increase” value with Smn protein (setting [3]) was “***** (fold increase >1.65)”.
For the compound `CCN1CCN(c2ccc3cc(-c4cn5cc(C)nc(C)c5n4)c(=O)oc3c2)CC1C` (centres unmarked) [Compound 852, 3-(6,8-dimethylimidazo[1,2-a]pyrazin-2-yl)-7-(4-ethyl-3-methylpiperazin-1-yl)-2H-chromen-2-one], in data set [1] (setting [2]), the EC (1.5-fold) was less than 0.1 µM. Also, the EC1.5x (concentration giving 1.5-fold Smn protein increase) in the data set with Smn protein (setting [4]) was less than 300 nM. Moreover, in the data set with Smn protein (setting [3]), the “maximum fold (Fold) increase” value was “**** (fold increase between >1.5 and ≤1.65)”.
Regarding `O=c1oc2cc(N3C[C@@H]4C[C@H]3CN4)ccc2cc1-c1cn2cccnc2n1` [Compound 129, 7-[(1S,4S)-2,5-diazabicyclo[2.2.1]hept-2-yl]-3-(imidazo[1,2a]pyrimidin-2-yl)-2H-chromen-2-one hydrochloride (1:3)], the EC (1.5-fold) in data set [1] (setting [2]) lay in the range of 0.3 to 1 µM. The “maximum fold (Fold) increase” value in the data set on Smn protein (setting [3]) was “** (fold increase between >1.2 and ≤1.35)”.
